Here are results for 28 molecules from patent US11858941B2, “Heterocyclic and heteroaryl compounds for treating Huntington's disease” (PTC THERAPEUTICS, INC., priority 2018, dated 2024).

pIC50: −log10 of the molar value.

The assay deals with Endogenous Huntingtin Protein. Briefly: Endogenous Huntingtin Protein Assay (Meso Scale Discovery ELISA-based electrochemiluminescence). Conditions: MSD plates coated with MW1 (expanded polyglutamine) or MAB2166 capture antibody; lysates. The assay is classed as cell-based. Here is the method: Compounds of Formula (I) were tested using the Meso Scale Discovery (MSD) Assay provided in International Application No. PCT/US2016/066042, filed on Dec. 11, 2016 and claiming priority to United States Provisional Application U.S. 62/265,652 filed on Dec. 10, 2015, the entire contents of which are incorporated herein by reference.
The Endogenous Huntingtin Protein assay used in Example 1 was developed using the ELISA-based MSD electrochemiluminescence assay platform.
Endogenous Huntingtin Protein Assay
Meso Scale Discovery (MSD) 96-well or 384-well plates were coated overnight at 4° C. with MW1 (expanded polyglutamine) or MAB2166 monoclonal antibody (for capture) at a concentration of 1 μg/mL in PBS (30 μL per well). Plates were then washed three times with 300 μL wash buffer (0.05% Tween-20 in PBS) and blocked (100 μL blocking buffer; 5% BSA in PBS) for 4-5 hours at room temperature with rotational shaking and then washed three times with wash buffer.
Samples (25 μL) were transferred to the antibody-coated MSD plate and incubated overnight at 4° C. After removal of the lysates, the plate was washed three times with wash buffer, and 25 μL of #5656S (Cell signaling; rabbit monoclonal) secondary antibody (diluted to 0.25 μg/mL in 0.05% Tween-20 in blocking buffer) was added to each well and incubated with shaking for 1 Hour at room temperature. Following incubation with the secondary antibody, the wells were rinsed with wash buffer after which 25 μL of goat anti-rabbit SULFO TAG secondary detection antibody (required aspect of the MSD system) (diluted to 0.25 μg/mL in 0.05% Tween-20 in blocking buffer) was added to each well and incubated with shaking for 1 hour at room temperature. After rinsing three times with wash buffer, 150 μL of read buffer T with surfactant (MSD) were added to each empty well, and the plate was imaged on a SI 6000 imager (MSD) according to manufacturers' instructions provided for 96- or 384-well plates.

Molecule `CC1(C)CC(n2nnc3cc(-c4ccc(-c5cn[nH]c5)c5nn[nH]c45)nnc32)CC(C)(C)N1` [Cpd 117, 6-[4-(1H-pyrazol-4-yl)-1H-benzotriazol-7-yl]-3-(2,2,6,6-tetramethylpiperidin-4-yl)-3H-[1,2,3]triazolo[4,5-c]pyridazine] showed a negative-log IC50 (pIC50) of 5.05 to 5.52.

For the molecule `CC1(C)CC(n2nnc3cc(-c4ccc(-c5cccnc5)cc4O)nnc32)CC(C)(C)N1` [Cpd 65, 5-(pyridin-3-yl)-2-[3-(2,2,6,6-tetramethylpiperidin-4-yl)-3H-[1,2,3]triazolo[4,5-c]pyridazin-6-yl]phenol], the pIC50 is 6.00 to 6.30.

`Cn1nccc1-c1ccc(-c2cc3nnn(C4CC(C)(C)NC(C)(C)C4)c3nn2)c(O)c1` [Cpd 50, 5-(1-methyl-1H-pyrazol-5-yl)-2-[3-(2,2,6,6-tetramethylpiperidin-4-yl)-3H-[1,2,3]triazolo[4,5-c]pyridazin-6-yl]phenol] had a pIC50 of 6.30 to 7.00.

With `CC1(C)CC(n2nnc3cc(-c4ccc(-c5c[nH]cn5)cc4O)nnc32)CC(C)(C)N1` [Cpd 115, 5-(1H-imidazol-4-yl)-2-[3-(2,2,6,6-tetramethylpiperidin-4-yl)-3H-[1,2,3]triazolo[4,5-c]pyridazin-6-yl]phenol], the pIC50 was 6.30 to 7.00.

Molecule `CC1(C)CC(n2nnc3cc(-c4ccc(-n5cnnc5)cc4O)nnc32)CC(C)(C)N1` [Cpd 64, 2-[3-(2,2,6,6-tetramethylpiperidin-4-yl)-3H-[1,2,3]triazolo[4,5-c]pyridazin-6-yl]-5-(4H-1,2,4-triazol-4-yl)phenol] gave a pIC50 of 5.52 to 6.00.

On to `CC1(C)CC(n2nnc3cc(-c4cc(O)c(-c5cn[nH]c5)cc4F)nnc32)CC(C)(C)N1` [Cpd 33, 4-fluoro-2-(1H-pyrazol-4-yl)-5-[3-(2,2,6,6-tetramethylpiperidin-4-yl)-3H-[1,2,3]triazolo[4,5-c]pyridazin-6-yl]phenol], for which the pIC50 was 6.00 to 6.30.

On to `Oc1cc(-c2cn[nH]c2)ccc1-c1cc2cnn(C3CCNCC3)c2nn1` [Cpd 21, 2-[1-(piperidin-4-yl)-1H-pyrazolo[3,4-c]pyridazin-5-yl]-5-(1H-pyrazol-4-yl)phenol], for which the pIC50 is 5.52 to 6.00.

The molecule `CC1(C)CC(n2nnc3cc(-c4ccc(-c5ccnnc5)cc4O)nnc32)CC(C)(C)N1` [Cpd 76, 5-(pyridazin-4-yl)-2-[3-(2,2,6,6-tetramethylpiperidin-4-yl)-3H-[1,2,3]triazolo[4,5-c]pyridazin-6-yl]phenol] had a pIC50 of 6.30 to 7.00.

`COc1nc2cc(-c3ccc(-c4cn[nH]c4)cc3O)nnc2n1C1CC(C)(C)NC(C)(C)C1` [Cpd 40, 2-[6-methoxy-7-(2,2,6,6-tetramethylpiperidin-4-yl)-7H-imidazo[4,5-c]pyridazin-3-yl]-5-(1H-pyrazol-4-yl)phenol] had a pIC50 of 5.05 to 5.52.

In the case of `Cc1nc2cc(-c3cc(F)c(-c4cn[nH]c4)cc3F)nnc2n1C1CC(C)(C)NC(C)(C)C1` [Cpd 6, 3-[2,5-difluoro-4-(1H-pyrazol-4-yl)phenyl]-6-methyl-7-(2,2,6,6-tetramethylpiperidin-4-yl)-7H-imidazo[4,5-c]pyridazine], the negative-log IC50 (pIC50) is 6.00 to 6.30.

Take `CC1(C)C[C@@H](n2nnc3cc(-c4ccc(-c5cn[nH]c5)cc4O)nnc32)[C@H](F)C(C)(C)N1` [Cpd 168, 2-{3-[(3S,4R)-3-fluoro-2,2,6,6-tetramethylpiperidin-4-yl]-3H-[1,2,3]triazolo[4,5-c]pyridazin-6-yl}-5-(1H-pyrazol-4-yl)phenol]: the negative logarithm of the IC50 (pIC50) was no less than 7.00.

`Cn1ccc(-c2ccc(-c3cc4nnn(C5CC(C)(C)NC(C)(C)C5)c4nn3)c(O)c2)n1` [Cpd 51, 5-(1-methyl-1H-pyrazol-3-yl)-2-[3-(2,2,6,6-tetramethylpiperidin-4-yl)-3H-[1,2,3]triazolo[4,5-c]pyridazin-6-yl]phenol]: the pIC50 is 6.30 to 7.00.

Turning to `CC1(C)CC(n2nnc3cc(-c4ccc(-c5ccc(OC(F)F)cn5)cc4O)nnc32)CC(C)(C)N1` [Cpd 103, 5-[5-(difluoromethoxy)pyridin-2-yl]-2-[3-(2,2,6,6-tetramethylpiperidin-4-yl)-3H-[1,2,3]triazolo[4,5-c]pyridazin-6-yl]phenol], the negative-log IC50 (pIC50) is 6.30 to 7.00.

As to `CC1(C)CC(n2nnc3cc(-c4ccc(-c5ccc6[nH]nnc6n5)cc4O)nnc32)CC(C)(C)N1` [Cpd 147, 2-[3-(2,2,6,6-tetramethylpiperidin-4-yl)-3H-[1,2,3]triazolo[4,5-c]pyridazin-6-yl]-5-(1H-[1,2,3]triazolo[4,5-b]pyridin-5-yl)phenol], the pIC50 was 5.52 to 6.00.

On to `Oc1cc(-c2cn[nH]c2)ccc1-c1cc2[nH]cc(C3=CC4COCC(C3)N4)c2nn1` (stereo not shown) [Cpd 28, 2-[7-(3-oxa-9-azabicyclo[3.3.1]non-6-en-7-yl)-5H-pyrrolo[3,2-c]pyridazin-3-yl]-5-(1H-pyrazol-4-yl)phenol], for which the pIC50 was 5.52 to 6.00.

`CC1(C)CC(n2cnc3nc(-c4ccc(-c5cn[nH]c5)cc4O)cnc32)CC(C)(C)N1` [Cpd 1, 5-(1H-pyrazol-4-yl)-2-[1-(2,2,6,6-tetramethylpiperidin-4-yl)-1H-imidazo[4,5-b]pyrazin-5-yl]phenol] gave a pIC50 of 6.30 to 7.00.

For `CN(C)c1ccc(-c2ccc(-c3cc4nnn(C5CC(C)(C)NC(C)(C)C5)c4nn3)c(O)c2)cn1` [Cpd 84, 5-[6-(dimethylamino)pyridin-3-yl]-2-[3-(2,2,6,6-tetramethylpiperidin-4-yl)-3H-[1,2,3]triazolo[4,5-c]pyridazin-6-yl]phenol], the pIC50 was 5.52 to 6.00.

The molecule `Oc1cc(-c2cn[nH]c2)ccc1-c1cc2[nH]cc(C3=CC4CCC(C3)N4)c2nn1` (stereo not shown) [Cpd 27, 2-[7-(8-azabicyclo[3.2.1]oct-2-en-3-yl)-5H-pyrrolo[3,2-c]pyridazin-3-yl]-5-(1H-pyrazol-4-yl)phenol] showed a pIC50 of no less than 7.00.

In the case of `CC1(C)CC(n2nnc3cc(-c4ccc(-c5cnc6nn[nH]c6c5)cc4O)nnc32)CC(C)(C)N1` [Cpd 145, 2-[3-(2,2,6,6-tetramethylpiperidin-4-yl)-3H-[1,2,3]triazolo[4,5-c]pyridazin-6-yl]-5-(1H-[1,2,3]triazolo[4,5-b]pyridin-6-yl)phenol], the pIC50 was 5.52 to 6.00.

The molecule `CC1(C)CC(n2nnc3cc(-c4ccc(-c5ccc(O)nn5)cc4O)nnc32)CC(C)(C)N1` [Cpd 79, 6-{3-hydroxy-4-[3-(2,2,6,6-tetramethylpiperidin-4-yl)-3H-[1,2,3]triazolo[4,5-c]pyridazin-6-yl]phenyl}pyridazin-3-ol] had a pIC50 of 6.00 to 6.30.

Turning to `CCOc1cc(-c2ccc(-c3cc4nnn(C5CC(C)(C)NC(C)(C)C5)c4nn3)c(O)c2)ccn1` [Cpd 123, 5-(2-ethoxypyridin-4-yl)-2-[3-(2,2,6,6-tetramethylpiperidin-4-yl)-3H-[1,2,3]triazolo[4,5-c]pyridazin-6-yl]phenol], the negative-log IC50 (pIC50) was 5.05 to 5.52.

With `Cc1ncc(-c2ccc(-c3cc4nnn(C5CC(C)(C)NC(C)(C)C5)c4nn3)c(O)c2)s1` [Cpd 150, 5-(2-methyl-1,3-thiazol-5-yl)-2-[3-(2,2,6,6-tetramethylpiperidin-4-yl)-3H-[1,2,3]triazolo[4,5-c]pyridazin-6-yl]phenol], the pIC50 is no less than 7.00.

With `CC1(C)CC(n2nnc3cc(-c4ccc(-c5cc[nH]c(=O)c5)cc4O)nnc32)CC(C)(C)N1` [Cpd 93, 4-{3-hydroxy-4-[3-(2,2,6,6-tetramethylpiperidin-4-yl)-3H-[1,2,3]triazolo[4,5-c]pyridazin-6-yl]phenyl}pyridin-2(1H)-one], the pIC50 is no less than 7.00.

With `CC(C)(C)NC1CCC(n2nnc3cc(-c4ccc(-c5cn[nH]c5)cc4O)nnc32)C1` (stereo not shown) [Cpd 175, 2-{3-[3-(tert-butylamino)cyclopentyl]-3H-[1,2,3]triazolo[4,5-c]pyridazin-6-yl}-5-(1H-pyrazol-4-yl)phenol], the negative logarithm of the IC50 (pIC50) is 6.00 to 6.30.

Regarding `Oc1cc(-c2cn[nH]c2)ccc1-c1cc2scc(C3=CC4CCC(C3)N4)c2nn1` (stereo not shown) [Cpd 18, 2-[7-(8-azabicyclo[3.2.1]oct-2-en-3-yl)thieno[3,2-c]pyridazin-3-yl]-5-(1H-pyrazol-4-yl)phenol], the negative-log IC50 (pIC50) is no less than 7.00.

For `CC1(C)CC(n2nnc3cc(-c4ccc(-c5ccn(C6CC6)c(=O)c5)cc4O)nnc32)CC(C)(C)N1` [Cpd 86, 1-cyclopropyl-4-{3-hydroxy-4-[3-(2,2,6,6-tetramethylpiperidin-4-yl)-3H-[1,2,3]triazolo[4,5-c]pyridazin-6-yl]phenyl}pyridin-2(1H)-one], the pIC50 was 5.52 to 6.00.

`CC1(C)CC(n2nnc3cc(-c4ccc(-n5nccn5)cc4O)nnc32)CC(C)(C)N1` [Cpd 163, 2-[3-(2,2,6,6-tetramethylpiperidin-4-yl)-3H-[1,2,3]triazolo[4,5-c]pyridazin-6-yl]-5-(2H-1,2,3-triazol-2-yl)phenol]: the pIC50 is no less than 7.00.

`Cn1ccc(-c2ccc(-c3cc4cnn(C5CC(C)(C)NC(C)(C)C5)c4nn3)c(O)c2)n1` [Cpd 169, 5-(1-methyl-1H-pyrazol-3-yl)-2-[1-(2,2,6,6-tetramethylpiperidin-4-yl)-1H-pyrazolo[3,4-c]pyridazin-5-yl]phenol]: the pIC50 was no less than 7.00.
